PubChem BioAssay (NCI)
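Exposure lasted 48 hours, with cells grown in 96-well plates and compounds tested at five concentrations. TGI: concentration producing complete growth inhibition.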

How the values were obtained:
Assay in all cases: growth of human tumour cells (NCI), 48 h
IGROV1 ovarian = tested on: IGROV1 ovarian
OVCAR-3 ovarian = tested on: OVCAR-3 ovarian
HCT-15 colon = tested on: HCT-15 colon
OVCAR-4 ovarian = tested on: OVCAR-4 ovarian
MOLT-4 leukemia = tested on: MOLT-4 leukemia
UACC-257 melanoma = tested on: UACC-257 melanoma
SK-MEL-5 melanoma = tested on: SK-MEL-5 melanoma
SK-MEL-2 melanoma = tested on: SK-MEL-2 melanoma
NCI-H522 lung = tested on: NCI-H522 lung
SF-295 CNS = tested on: SF-295 CNS
SW-620 colon = tested on: SW-620 colon
HCT-116 colon = tested on: HCT-116 colon
CCRF-CEM leukemia = tested on: CCRF-CEM leukemia
LOX IMVI melanoma = tested on: LOX IMVI melanoma
SNB-75 CNS = tested on: SNB-75 CNS
HT29 colon = tested on: HT29 colon
NCI-H226 lung = tested on: NCI-H226 lung
UACC-62 melanoma = tested on: UACC-62 melanoma
HL-60(TB) leukemia = tested on: HL-60(TB) leukemia
COLO 205 colon = tested on: COLO 205 colon

| Structure (SMILES) | TGI (IGROV1 ovarian) | TGI (OVCAR-3 ovarian) | TGI (HCT-15 colon) | TGI (OVCAR-4 ovarian) | TGI (MOLT-4 leukemia) | TGI (UACC-257 melanoma) | TGI (SK-MEL-5 melanoma) | TGI (SK-MEL-2 melanoma) | TGI (NCI-H522 lung) | TGI (SF-295 CNS) | TGI (SW-620 colon) | TGI (HCT-116 colon) | TGI (CCRF-CEM leukemia) | TGI (LOX IMVI melanoma) | TGI (SNB-75 CNS) | TGI (HT29 colon) | TGI (NCI-H226 lung) | TGI (UACC-62 melanoma) | TGI (HL-60(TB) leukemia) | TGI (COLO 205 colon) |
| --- | --- | --- | --- | --- | --- | --- | --- | --- | --- | --- | --- | --- | --- | --- | --- | --- | --- | --- | --- | --- |
| NC(=O)NC(CC(=O)O)C(=O)O (stereo unspecified) | > 100 µM | > 100 µM | > 100 µM | > 100 µM | > 100 µM | > 100 µM | > 100 µM | > 100 µM | > 100 µM | > 100 µM | > 100 µM | > 100 µM | > 100 µM | > 100 µM | > 100 µM | > 100 µM | > 100 µM | > 100 µM | – | – |
| COc1cc(C2c3cc4c(cc3OC3(O)COC(=O)C23)OCO4)cc(OC)c1OC (stereo unspecified) | > 100 µM | > 100 µM | > 100 µM | > 100 µM | > 100 µM | > 100 µM | – | > 100 µM | 54.1 µM | 74.5 µM | > 100 µM | > 100 µM | > 100 µM | > 100 µM | 54.5 µM | > 100 µM | > 100 µM | > 100 µM | 97.7 µM | – |
| CCOc1ccc(C2=C(Cl)c3cc(OC)c(OC)cc3C2Cl)cc1 (stereo unspecified) | > 100 µM | > 100 µM | > 100 µM | – | 78.4 µM | – | 39.3 µM | 70.6 µM | 49 µM | > 100 µM | > 100 µM | – | > 100 µM | 45.1 µM | > 100 µM | > 100 µM | > 100 µM | > 100 µM | 49.4 µM | > 100 µM |
| COc1ccc2c(C)cc(N/N=C/c3sccc3C)nc2c1 | 27.4 µM | 10.6 µM | 20.3 µM | > 100 µM | 48.6 µM | 22.4 µM | 18.9 µM | 29.8 µM | 21.9 µM | 28.4 µM | 69.4 µM | 16.1 µM | > 100 µM | 21.5 µM | 26.1 µM | 12.5 µM | 25.9 µM | 34.9 µM | > 100 µM | 17.9 µM |
| CC(=O)Nc1ccc(C2=N/C(=C\c3ccc(Cl)c(Cl)c3)C(=O)O2)cc1 | > 100 µM | > 100 µM | > 100 µM | > 100 µM | > 100 µM | > 100 µM | > 100 µM | > 100 µM | > 100 µM | > 100 µM | > 100 µM | > 100 µM | > 100 µM | > 100 µM | > 100 µM | > 100 µM | > 100 µM | > 100 µM | > 100 µM | > 100 µM |
| COc1ccc(N2C(=O)C3c4[nH]c5ccccc5c4C4CCCCCCCC4C3C2=O)cc1 (stereo unspecified) | > 10 µM | > 10 µM | > 10 µM | > 10 µM | > 10 µM | – | > 10 µM | > 10 µM | > 10 µM | > 10 µM | > 10 µM | > 10 µM | 8.35 µM | – | > 10 µM | > 10 µM | > 10 µM | > 10 µM | > 10 µM | > 10 µM |
| COc1cc(C2C(Cl)C(=O)N2NC(=O)c2ccc(NC(C)=O)cc2)cc(Br)c1O (stereo unspecified) | > 100 µM | > 100 µM | – | – | > 100 µM | > 100 µM | > 100 µM | > 100 µM | > 100 µM | > 100 µM | > 100 µM | > 100 µM | > 100 µM | – | > 100 µM | > 100 µM | > 100 µM | > 100 µM | > 100 µM | > 100 µM |
| CCCCC(NC(=O)CC)C(=O)O (stereo unspecified) | > 100 µM | > 100 µM | > 100 µM | > 100 µM | > 100 µM | > 100 µM | > 100 µM | > 100 µM | > 100 µM | > 100 µM | > 100 µM | > 100 µM | > 100 µM | > 100 µM | > 100 µM | > 100 µM | > 100 µM | > 100 µM | > 100 µM | > 100 µM |
| CN1C[C@H]2[C@@H](C1=O)[C@H](c1ccc([N+](=O)[O-])cc1)ON2C | > 100 µM | > 100 µM | > 100 µM | > 100 µM | > 100 µM | > 100 µM | > 100 µM | > 100 µM | > 100 µM | > 100 µM | > 100 µM | > 100 µM | > 100 µM | > 100 µM | – | > 100 µM | > 100 µM | – | > 100 µM | > 100 µM |
